Patent US20250162973A1, “METHODS OF SYNTHESIS AND USES OF AGRIMOL COMPOUNDS” (Versitech Limited, priority 2022, published 2025)

Assays:
[1] = tested on: ER stress in NCI-H460 cells; experiment: ER stress (ER tracker staining, Western Blot of markers); assay type: cell-based, human
From the text: The disruption of Golgi structure leads to impaired glycosylation processes, resulting in misfolded proteins which would accumulate to induce ER stress. The relationship between AGB and ER stress in cancer cells was examined. The morphology of ER was disrupted and the content was lessened using ER tracker staining (images not shown). In order to verify that NCI-H460 cells developed ER stress response when treated with AGB, the expression of two ER stress markers, Glucose-regulated protein (GRP) 78 (GRP78) and C/-EBP homologous protein (CHOP), was examined. GAPDH was used as a loading control. […] Generally, there are three sensors to initiate ER stress responses, including IRE1, PERK and ATF6. Upon the accumulation of unfolded proteins, BiP preferentially binds to the unfolded proteins, which results in the release of PERK, IRE1, and ATF6. Once released from BiP, PERK becomes activated and dimerized. Activated PERK phosphorylates eIF2α to suppress the overall […] of mRNAs.

[2] = Serum biochemical examination in MTD test; assay type: in vivo; details: 12.8 mg/kg
Description: (§1) The MTD test in this study was done in collaboration with Tianjin Institute of Pharmaceutical Research (TIPR). […] A total of 80 mice were randomly assigned into four groups (10 male and 10 female mice in each group) in this study. Four groups included 16.0 mg/kg of AGB group, 12.8 mg/kg of AGB group, vehicle control group (10% DMSO+0.8% Tween-80 in normal saline), and the blank control group (normal saline).
(§2) Then, the body weights of surviving animals were measured on the 1st, 3rd, 7th and 14th days, respectively. At the end of experiment, the hematology, blood biochemistry, anatomical examination, and histopathology examination were performed in both vehicle control group and the MTD group (12.8 mg/kg). The data were presented as the mean±standard deviation.

[3] = tested on: mitochondria of NCI-H460 cells; experiment: Mitochondrial morphology and fusion/fission proteins (MitoTracker, Western Blot, immunofluorescence, TEM); assay type: cell-based, human
From the text: Mitochondria are highly dynamic organelles that frequently fuse and fragment, with the ability to change size, shape, and position. The dynamic nature of mitochondria is important for mitochondrial inheritance and for the maintenance of mitochondrial functions. When the balance between fission and fusion is disrupted, as result of a relative increase or decrease in either process, the overall mitochondrial morphology is changed markedly.
Several proteins that control mitochondrial fusion and fission have been identified, including mitofusins and OPA1 for fusion, and Mff and DRP1 for fission. The effects of AGB on the expression of mitochondrial fusion proteins (Mfn1 and Mfn2) and fission proteins (DRP1 and Mff) were studied. […] DRP1 phosphorylation at residue S637 by protein kinase A inhibits mitochondrial fission whereas dephosphorylation at S637 increases mitochondrial recruitment of DRP1 and promotes mitochondrial fission. The localization of DRP1 was examined by the immunofluorescence staining.
OPA1 is another protein localized at the inner mitochondrial membrane and is involved in different function like regulation of mitochondrial morphology dynamics, maintenance of respiratory chain, and control of ATP synthesis. The decrease of L-OPA1 causes inhibition of mitochondrial fusion, whereas the accumulation of S-OPA1 facilitates mitochondrial fission. […] OPA1 plays a role in maintaining the mitochondrial cristae structure. OPA1 fragmentation leads to a disorganization of the structure of the mitochondrial inner membrane. The ultrastructure of mitochondria was observed under transmission electron microscopy (TEM) with the treatment of AGB or vehicle for 16 h.

[4] = Hematological examination in MTD test; assay type: in vivo; details: 12.8 mg/kg, day 14
Description: as §1, §2

NCI-H460 cells = experiment: Cell colony formation (clonogenic) assay; assay type: cell-based, human
Description: For the colony formation assay, cells were treated with indicated concentrations of AGB for 8 h, then AGB was then removed and 200 cells were trypsinized and seeded into a new 12-well cell culture plate containing 1.5 ml of complete cell growth medium. After cells were grown for 14 days, cells were then fixed with ethanol followed a staining by crystal violet (0.05%, w/v, in water) for 15 min. The cell colonies were captured under the microscope and the number of colonies was calculated by ImageJ (version 1.50i, NIH, USA, internet site imagej.nih.gov).

In the case of CCCC(=O)c1c(O)c(Cc2c(O)c(Cc3c(O)c(C)c(OC)c(C(=O)CCC)c3O)c(O)c(C(=O)[C@@H](C)CC)c2O)c(O)c(C)c1OC [AGB, Agrimol B], the “phosphorylation status of eIF2α” value ([1]; AGB-treated NCI-H460) is reported as “eIF2α was phosphorylated”, the “morphology of ER” value ([1]; ER tracker staining) is reported as “disrupted” and the “expression of ER stress markers GRP78 and CHOP” value ([1]; Western Blot, time-dependent) is reported as “significantly increased”. The “serum biochemical abnormalities vs vehicle control” value ([2]; 14 days after administration) was “no obvious abnormalities”, the ALB ([2]; day 14) was 17.73 ± 5.07 g/L and the ALP ([2]; day 14) was 153.67 ± 37.63 U/L. For the same molecule, the ALT ([2]; day 14) was 26.09 ± 2.23 U/L, the AST ([2]; day 14) was 85.74 ± 15.96 U/L and the BUN ([2]; day 14) was 4.58 ± 2.24 mmol/L. It also gave a CK ([2]; day 14) of 953.09 ± 480.50 U/L, a CREA ([2]; day 14) of 34.11 ± 3.61 µmol/L and a GGT ([2]; day 14) of 0.07 ± 0.08 U/L. For the same molecule, the GLU ([2]; day 14) was 9.10 ± 3.07 mmol/L, the LDH ([2]; day 14) was 403.54 ± 92.68 U/L and the T.BIL ([2]; day 14) was 1.75 ± 0.45 µmol/L. It also gave a T.CHO ([2]; day 14) of 3.68 ± 1.60 mmol/L, a TG ([2]; day 14) of 1.41 ± 0.59 mmol/L and a TP ([2]; day 14) of 45.93 ± 13.71 g/L. For the same molecule, the “morphology of mitochondria (MitoTracker Green)” value ([3]; 4 μM AGB, 0-16 h) was “gradually changed into significant punctuated structures”, the “ultrastructure of mitochondria (TEM)” value ([3]; 16 h treatment) was “circular vesicles of reduced diameter predominated” and the “expression of DRP1 and Mff” value ([3]; Western Blot) was “did not alter”. The “phosphor-DRP1 (Ser637)” value ([3]; Western Blot) was “significant decrease”, the “OPA1 cleavage from L-OPA1 into S-OPA1” value ([3]; Western Blot, dose and time dependent) was “promoted OPA1 cleavage” and the “expression of Mfn1 and Mfn2” value ([3]; Western Blot, dose-dependent) was “slightly decreased”. For the same molecule, the “translocation of DRP1 from cytoplasm into mitochondria” value ([3]; immunostaining, mito-RFP-transfected cells) was “significantly promoted”, the “E (eosinophils)” value [4] was 0.29 ± 0.11 ×10^9/L and the “E(%)” value [4] was 5.48 ± 1.64%. The HCT [4] was 47.54 ± 2.21%, the HGB [4] was 138.20 ± 9.38 g/L and the “L (lymphocytes)” value [4] was 4.22 ± 1.32 ×10^9/L. The “L(%)” value [4] was 77.53 ± 2.05%, the “M (monocytes)” value [4] was 0.09 ± 0.03 ×10^9/L and the “M(%)” value [4] was 1.64 ± 0.46%. For the same molecule, the MCH [4] was 15.20 ± 0.97 pg, the MCHC [4] was 291.00 ± 20.17 g/L and the MCV [4] was 52.25 ± 2.16 fL. The “N (neutrophils)” value [4] was 0.78 ± 0.28 ×10^9/L, the “N(%)” value [4] was 14.24 ± 2.15% and the PLT [4] was 1733.80 ± 371.53 ×10^9/L. For the same molecule, the RBC [4] was 9.11 ± 0.45 ×10^12/L, the Ret [4] was 0.81 ± 0.09 ×10^12/L and the “Ret(%)” value [4] was 8.83 ± 0.74%. The WBC [4] was 5.44 ± 1.66 ×10^9/L, the “AGB concentration over which colonies numbers were significantly reduced” value (NCI-H460 cells; 8 h treatment, colonies counted after two weeks) was “over 2.5 μM” and the “concentration giving significant reduction of cell colony formation” value (NCI-H460 cells; clonogenicity assay) was “around 4 μM”.
